In article PMC9127186, “Molecular Basis Underlying Hepatobiliary and Renal Excretion of Phenolic Acids of Salvia miltiorrhiza Roots (Danshen)” (Frontiers in Pharmacology, 2022):

Tests used:
rat Pept1 = biological target: T1, rat Pept1 (Rattus norvegicus, UniProt P51574); test: Cellular transport assay, HEK-293 cells expressing rat Pept1; conditions: Danshen phenolic acid at 100 μM final concentration, 10 min, incubation pH 6.0; rat Pept1-transfected vs mock cells
T1 sequence (P51574 1-710): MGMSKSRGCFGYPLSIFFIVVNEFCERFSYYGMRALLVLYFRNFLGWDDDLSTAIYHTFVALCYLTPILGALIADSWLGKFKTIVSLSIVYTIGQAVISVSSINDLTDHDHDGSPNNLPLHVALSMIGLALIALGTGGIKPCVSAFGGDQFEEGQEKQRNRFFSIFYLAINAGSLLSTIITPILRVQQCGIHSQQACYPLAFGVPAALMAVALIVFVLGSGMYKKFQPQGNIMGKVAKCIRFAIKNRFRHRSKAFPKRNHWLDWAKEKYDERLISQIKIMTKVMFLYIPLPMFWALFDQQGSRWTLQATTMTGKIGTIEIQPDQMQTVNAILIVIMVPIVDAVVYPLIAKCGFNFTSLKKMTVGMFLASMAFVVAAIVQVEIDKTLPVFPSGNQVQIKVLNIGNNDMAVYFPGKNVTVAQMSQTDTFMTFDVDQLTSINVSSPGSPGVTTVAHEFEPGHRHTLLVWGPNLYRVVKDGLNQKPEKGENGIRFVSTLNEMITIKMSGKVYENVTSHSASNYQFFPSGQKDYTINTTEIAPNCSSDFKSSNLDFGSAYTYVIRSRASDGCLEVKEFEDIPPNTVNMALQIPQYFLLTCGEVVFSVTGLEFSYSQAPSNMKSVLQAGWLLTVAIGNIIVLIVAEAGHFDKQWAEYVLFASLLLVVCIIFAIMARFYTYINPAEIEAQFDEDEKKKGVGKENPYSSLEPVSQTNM

rat Oct1 = biological target: T2, rat Oct1 (Rattus norvegicus, UniProt Q63089); test: Cellular transport assay, HEK-293 cells expressing rat Oct1; conditions: Danshen phenolic acid at 100 μM final concentration, 10 min; rat Oct1-transfected vs mock cells
T2 sequence (Q63089 1-556): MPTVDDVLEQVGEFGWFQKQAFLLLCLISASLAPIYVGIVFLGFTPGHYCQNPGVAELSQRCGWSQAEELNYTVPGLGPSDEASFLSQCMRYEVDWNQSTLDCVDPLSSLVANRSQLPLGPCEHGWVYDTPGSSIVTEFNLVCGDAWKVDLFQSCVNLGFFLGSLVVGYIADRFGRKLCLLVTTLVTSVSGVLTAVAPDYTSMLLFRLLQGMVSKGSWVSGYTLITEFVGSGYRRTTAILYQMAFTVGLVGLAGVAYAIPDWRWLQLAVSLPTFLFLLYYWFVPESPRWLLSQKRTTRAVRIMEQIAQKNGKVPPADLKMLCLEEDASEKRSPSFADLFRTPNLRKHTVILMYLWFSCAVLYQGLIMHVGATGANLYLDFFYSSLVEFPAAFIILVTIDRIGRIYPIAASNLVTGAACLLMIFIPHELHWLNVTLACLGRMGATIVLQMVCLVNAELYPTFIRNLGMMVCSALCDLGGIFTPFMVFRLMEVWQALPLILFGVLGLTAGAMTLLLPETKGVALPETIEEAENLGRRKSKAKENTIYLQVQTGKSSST

human OCT1 = biological target: T3, human OCT1 (Homo sapiens, UniProt O15245); test: Cellular transport assay, HEK-293 cells expressing human OCT1; conditions: Danshen phenolic acid at 100 μM final concentration, 10 min; human OCT1-transfected vs mock cells
T3 sequence (O15245 1-554): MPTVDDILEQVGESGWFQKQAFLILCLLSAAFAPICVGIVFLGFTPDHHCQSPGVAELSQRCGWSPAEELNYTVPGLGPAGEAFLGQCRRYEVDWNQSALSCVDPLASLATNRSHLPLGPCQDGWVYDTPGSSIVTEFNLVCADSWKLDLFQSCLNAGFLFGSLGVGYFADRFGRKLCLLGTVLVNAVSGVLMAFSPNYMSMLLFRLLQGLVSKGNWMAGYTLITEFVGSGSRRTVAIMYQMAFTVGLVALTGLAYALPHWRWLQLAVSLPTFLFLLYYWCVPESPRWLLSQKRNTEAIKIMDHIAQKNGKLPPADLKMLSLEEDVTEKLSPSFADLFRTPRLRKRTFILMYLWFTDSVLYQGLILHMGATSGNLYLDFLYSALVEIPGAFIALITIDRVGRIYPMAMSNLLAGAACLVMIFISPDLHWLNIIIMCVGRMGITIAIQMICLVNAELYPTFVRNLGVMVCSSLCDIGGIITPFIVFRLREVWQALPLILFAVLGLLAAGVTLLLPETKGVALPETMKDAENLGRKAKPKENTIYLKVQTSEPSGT

human OCT2 = biological target: T4, human OCT2 (Homo sapiens, UniProt O15244); test: Cellular transport assay, HEK-293 cells expressing human OCT2; conditions: Danshen phenolic acid at 100 μM final concentration, 10 min; human OCT2-transfected vs mock cells
T4 sequence (O15244 1-555): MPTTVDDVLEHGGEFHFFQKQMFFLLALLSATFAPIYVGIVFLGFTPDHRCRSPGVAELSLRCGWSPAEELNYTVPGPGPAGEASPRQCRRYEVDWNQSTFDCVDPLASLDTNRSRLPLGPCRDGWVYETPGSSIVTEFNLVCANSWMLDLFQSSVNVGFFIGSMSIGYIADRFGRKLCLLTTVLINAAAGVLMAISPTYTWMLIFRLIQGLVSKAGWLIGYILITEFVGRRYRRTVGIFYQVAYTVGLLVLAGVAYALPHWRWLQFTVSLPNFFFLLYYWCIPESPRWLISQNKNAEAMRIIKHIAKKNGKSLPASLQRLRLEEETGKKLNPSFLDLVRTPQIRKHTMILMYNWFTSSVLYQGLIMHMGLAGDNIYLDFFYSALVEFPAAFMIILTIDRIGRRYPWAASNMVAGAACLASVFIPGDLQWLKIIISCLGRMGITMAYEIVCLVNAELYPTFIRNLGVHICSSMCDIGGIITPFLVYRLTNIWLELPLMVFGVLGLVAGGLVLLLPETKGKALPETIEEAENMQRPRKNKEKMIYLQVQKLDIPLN

Compound | TransportTC/TransportMC ratio (net transport ratio) (rat Pept1) | TransportTC/TransportMC ratio (net transport ratio) (rat Oct1) | TransportTC/TransportMC ratio (net transport ratio) (human OCT1) | TransportTC/TransportMC ratio (net transport ratio) (human OCT2)
O=C(/C=C/c1ccc(O)c2c1[C@H](C(=O)O)[C@@H](c1ccc(O)c(O)c1)O2)O[C@H](Cc1ccc(O)c(O)c1)C(=O)O [Lithospermic acid, lithospermic acid] | 1.31 ± 0.32 | 1.18 ± 0.06 | 1.56 ± 0.26 | 0.89 ± 0.31
O=C(O)c1ccc(O)c(O)c1 [Protocatechuic acid, protocatechuic acid] | 1.37 ± 0.36 | 1.19 ± 0.41 | 1.09 ± 0.33 | 0.75 ± 0.35
O=C(O)Cc1c(/C=C/C(=O)O[C@H](Cc2ccc(O)c(O)c2)C(=O)O)ccc(O)c1O [Salvianolic acid D, salvianolic acid D] | 1.43 ± 0.36 | 1.23 ± 0.54 | 1.04 ± 0.24 | 0.85 ± 0.26
salvianolic acid B | 1.21 ± 0.45 | 0.66 ± 0.17 | 1.03 ± 0.07 | 0.75 ± 0.23
